{
  "source": "patent US11155814B2",
  "about": "“Methods for using DNA repair for cell engineering” (Caribou Biosciences, Inc., priority 2016, dated 2021)",
  "tested_on": "HEK293T cells",
  "assay": "Compound treatment: DNA-PK inhibitor added after sgRNP nucleofection, DNA repair outcomes profiled by amplicon sequencing",
  "type": "cell-based, human",
  "description": "For compound treatments, sgRNP formation and nucleofection of 293T cells was performed as described above and cells were plated in 150 μl of culture medium. One hour after plating, 50 μl of media containing compound at 4× the final concentration were delivered to the cells. […] 48 hours after compound addition, cells were harvested and processed for genomic DNA preparation as described below.\nK562 cells and HSCs were transferred to a thermal cycler compatible plate and pelleted by centrifugation. After the media was gently aspirated, 50 μl EpiBio QuickExtract DNA extraction solution (Epicentre, QE09050) was added into each well and the plate was incubated at 37° C. for 15 minutes. For HEK293 and HCT116 cells, media was gently aspirated from 96-well culture plates and cells were gently rinsed with 1×Phosphate Buffered Saline (PBS). 50 μl of EpiBio QuickExtract DNA extraction solution was added to each well and the plates were incubated at 37° C. for 15 minutes. For all cell types, molecular biology grade water (Teknova) was added to each well to attain a concentration of 1000 genomic copies/μl for subsequent PCR reactions. After addition of water, adherent cells were then transferred to thermal cycler compatible plates. All cell types were lysed (75° C. 10 min, 95° C. 5 min) and the lysate was stored at −80° C. […]\nFollowing secondary alignment, reads were then categorized as “mutant” if they contained an indel within ±5 base pairs of the cut site; otherwise, they were categorized as “wild type”. Each mutant read was assigned to an “indel class” based on the indel type (insertion or deletion), start site, and length.\nHeat maps were generated from the processed sequencing data as follows. […] The color intensities in the cells correspond to frequency as a fraction of mutant reads, with the color scale ranging from 0 to 0.2 (saturation). […]",
  "key": {"[1]": {"settings": "as inhibitor concentration increased (1.56 μM-25 μM), 48 hours"}},
  "data": [
    {"smiles": "O=c1cc(N2CCOCC2)oc2c(-c3cccc4c3sc3ccccc34)cccc12", "note": "[NU7441]", "values": [
      {"measurement": "mean frequency of a subset of large deletions (>3 base pairs) present in the DNA repair profiles", "setting": "[1]", "result": "increased"},
      {"measurement": "mean frequency of single base insertions and small deletions (<3 base pairs)", "setting": "[1]", "result": "decreased"},
      {"measurement": "change of the DNA repair patterns at 12 different target sites compared with untreated samples", "setting": "lowest concentration of inhibitor (1.56 μM), added one hour post nucleofection, harvested 48 hours", "result": "apparent"}
    ]}
  ]
}
